From PubChem BioAssay (NCI)
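Cells were grown in 96-well plates and exposed to each compound for 48 hours at five concentrations; endpoints were interpolated linearly between bracketing concentrations, or set to the highest concentration if not reached. Here, GI50 denotes the concentration required for 50% inhibition of growth. TGI denotes the concentration required for complete inhibition of growth.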

What was measured:
Assay in all cases: growth of human tumour cells (NCI), 48 h
COLO 205 colon = tested on: COLO 205 colon
RXF 393 renal = tested on: RXF 393 renal
OVCAR-3 ovarian = tested on: OVCAR-3 ovarian
TK-10 renal = tested on: TK-10 renal
M14 melanoma = tested on: M14 melanoma
HS 578T breast = tested on: HS 578T breast
HOP-92 NSCLC = tested on: HOP-92 NSCLC
NCI-H226 lung = tested on: NCI-H226 lung
786-0 renal = tested on: 786-0 renal
MALME-3M melanoma = tested on: MALME-3M melanoma
HOP-62 NSCLC = tested on: HOP-62 NSCLC
NCI-H460 lung = tested on: NCI-H460 lung
SK-MEL-28 melanoma = tested on: SK-MEL-28 melanoma
A498 renal = tested on: A498 renal
SK-MEL-5 melanoma = tested on: SK-MEL-5 melanoma
HCT-15 colon = tested on: HCT-15 colon
SF-268 CNS = tested on: SF-268 CNS
SF-295 CNS = tested on: SF-295 CNS
MCF7 breast = tested on: MCF7 breast
SNB-75 CNS = tested on: SNB-75 CNS
OVCAR-4 ovarian = tested on: OVCAR-4 ovarian
SK-MEL-2 melanoma = tested on: SK-MEL-2 melanoma
NCI/ADR-RES ovarian = tested on: NCI/ADR-RES ovarian
OVCAR-8 ovarian = tested on: OVCAR-8 ovarian
SW-620 colon = tested on: SW-620 colon
HT29 colon = tested on: HT29 colon
EKVX NSCLC = tested on: EKVX NSCLC
SK-OV-3 ovarian = tested on: SK-OV-3 ovarian
DU-145 prostate = tested on: DU-145 prostate
A549 NSCLC = tested on: A549 NSCLC
UACC-62 melanoma = tested on: UACC-62 melanoma
MDA-MB-435 = tested on: MDA-MB-435
K-562 leukemia = tested on: K-562 leukemia
IGROV1 ovarian = tested on: IGROV1 ovarian
LOX IMVI melanoma = tested on: LOX IMVI melanoma
OVCAR-5 ovarian = tested on: OVCAR-5 ovarian
SF-539 CNS = tested on: SF-539 CNS
T-47D breast = tested on: T-47D breast
HL-60(TB) leukemia = tested on: HL-60(TB) leukemia
PC-3 prostate = tested on: PC-3 prostate
ACHN renal = tested on: ACHN renal
HCC-2998 colon = tested on: HCC-2998 colon
MOLT-4 leukemia = tested on: MOLT-4 leukemia
NCI-H522 lung = tested on: NCI-H522 lung
NCI-H23 lung = tested on: NCI-H23 lung
HCT-116 colon = tested on: HCT-116 colon
BT-549 breast = tested on: BT-549 breast
KM12 colon = tested on: KM12 colon
MDA-MB-231 breast = tested on: MDA-MB-231 breast
RPMI-8226 leukemia = tested on: RPMI-8226 leukemia
CAKI-1 renal = tested on: CAKI-1 renal
UACC-257 melanoma = tested on: UACC-257 melanoma
SNB-19 CNS = tested on: SNB-19 CNS
SN12C renal = tested on: SN12C renal
SR leukemia = tested on: SR leukemia
U251 CNS = tested on: U251 CNS
CCRF-CEM leukemia = tested on: CCRF-CEM leukemia
UO-31 renal = tested on: UO-31 renal

O=C1Nc2ccc(C(=O)c3ccco3)cc2/C1=C/c1cc(Cl)c(O)c(Cl)c1
GI50 (COLO 205 colon): 8.01 µM
TGI (COLO 205 colon): > 25 µM
GI50 (RXF 393 renal): 2770 nM
TGI (RXF 393 renal): 15.5 µM
GI50 (OVCAR-3 ovarian): 4.32 µM
TGI (OVCAR-3 ovarian): 10.6 µM
GI50 (TK-10 renal): 6.53 µM
TGI (TK-10 renal): > 23.9 µM
GI50 (M14 melanoma): 1450 nM
TGI (M14 melanoma): 13.3 µM
GI50 (HS 578T breast): 4.94 µM
TGI (HS 578T breast): > 21.7 µM
GI50 (HOP-92 NSCLC): 3.2 µM
TGI (HOP-92 NSCLC): 14.4 µM
GI50 (NCI-H226 lung): 6.98 µM
TGI (NCI-H226 lung): > 24.1 µM
GI50 (786-0 renal): 4.29 µM
TGI (786-0 renal): 11.6 µM
GI50 (MALME-3M melanoma): 1660 nM
TGI (MALME-3M melanoma): 11.1 µM
GI50 (HOP-62 NSCLC): 7.45 µM
TGI (HOP-62 NSCLC): > 22.1 µM
GI50 (NCI-H460 lung): 4.23 µM
TGI (NCI-H460 lung): > 22.8 µM
GI50 (SK-MEL-28 melanoma): 4.17 µM
TGI (SK-MEL-28 melanoma): > 18.1 µM
GI50 (A498 renal): 3.69 µM
TGI (A498 renal): 9.72 µM
GI50 (SK-MEL-5 melanoma): 3.43 µM
TGI (SK-MEL-5 melanoma): 6.88 µM
GI50 (HCT-15 colon): 4.16 µM
TGI (HCT-15 colon): > 25 µM
GI50 (SF-268 CNS): 5.94 µM
TGI (SF-268 CNS): > 25 µM
GI50 (SF-295 CNS): 8.21 µM
TGI (SF-295 CNS): > 25 µM
GI50 (MCF7 breast): 6.1 µM
TGI (MCF7 breast): > 25 µM
GI50 (SNB-75 CNS): 6.16 µM
TGI (SNB-75 CNS): > 25 µM
GI50 (OVCAR-4 ovarian): 6.95 µM
TGI (OVCAR-4 ovarian): > 25 µM
GI50 (SK-MEL-2 melanoma): 2860 nM
TGI (SK-MEL-2 melanoma): 7.21 µM
GI50 (NCI/ADR-RES ovarian): 9.61 µM
TGI (NCI/ADR-RES ovarian): > 25 µM
GI50 (OVCAR-8 ovarian): 6.27 µM
TGI (OVCAR-8 ovarian): > 25 µM
GI50 (SW-620 colon): 4.8 µM
TGI (SW-620 colon): > 23.8 µM
GI50 (HT29 colon): 5.75 µM
TGI (HT29 colon): > 21.2 µM
GI50 (EKVX NSCLC): 11 µM
TGI (EKVX NSCLC): > 25 µM
GI50 (SK-OV-3 ovarian): 4.51 µM
TGI (SK-OV-3 ovarian): 16.1 µM
GI50 (DU-145 prostate): 4.75 µM
TGI (DU-145 prostate): > 18.4 µM
GI50 (A549 NSCLC): 6.77 µM
TGI (A549 NSCLC): > 24 µM
GI50 (UACC-62 melanoma): 2630 nM
TGI (UACC-62 melanoma): 7.91 µM
GI50 (MDA-MB-435): 4.11 µM
TGI (MDA-MB-435): 24.2 µM
GI50 (K-562 leukemia): 9.05 µM
TGI (K-562 leukemia): > 25 µM
GI50 (IGROV1 ovarian): 3.36 µM
TGI (IGROV1 ovarian): > 20.7 µM
GI50 (LOX IMVI melanoma): 1780 nM
TGI (LOX IMVI melanoma): 15.3 µM
GI50 (OVCAR-5 ovarian): 8.35 µM
TGI (OVCAR-5 ovarian): > 20 µM
GI50 (SF-539 CNS): 3.93 µM
TGI (SF-539 CNS): 9.49 µM
GI50 (T-47D breast): 7.17 µM
TGI (T-47D breast): > 25 µM
GI50 (HL-60(TB) leukemia): 6.93 µM
TGI (HL-60(TB) leukemia): > 21.1 µM
GI50 (PC-3 prostate): 6.52 µM
TGI (PC-3 prostate): > 24.1 µM
GI50 (ACHN renal): 2140 nM
TGI (ACHN renal): 11.1 µM
GI50 (HCC-2998 colon): 6.07 µM
TGI (HCC-2998 colon): 17.7 µM
GI50 (MOLT-4 leukemia): 9.36 µM
TGI (MOLT-4 leukemia): 24.9 µM
GI50 (NCI-H522 lung): 3.91 µM
TGI (NCI-H522 lung): 11.9 µM
GI50 (NCI-H23 lung): 4.74 µM
TGI (NCI-H23 lung): 21.7 µM
GI50 (HCT-116 colon): 1870 nM
TGI (HCT-116 colon): > 25 µM
GI50 (BT-549 breast): 3.54 µM
TGI (BT-549 breast): 10.5 µM
GI50 (KM12 colon): 3.62 µM
TGI (KM12 colon): > 17.7 µM
GI50 (MDA-MB-231 breast): 9.89 µM
TGI (MDA-MB-231 breast): > 25 µM
GI50 (RPMI-8226 leukemia): 4.02 µM
TGI (RPMI-8226 leukemia): 12.5 µM
GI50 (CAKI-1 renal): 1720 nM
TGI (CAKI-1 renal): > 20.9 µM
GI50 (UACC-257 melanoma): 4.79 µM
TGI (UACC-257 melanoma): 17.9 µM
GI50 (SNB-19 CNS): 8.52 µM
TGI (SNB-19 CNS): > 25 µM
GI50 (SN12C renal): 6.53 µM
TGI (SN12C renal): > 25 µM
GI50 (SR leukemia): 3.03 µM
TGI (SR leukemia): 18.8 µM
GI50 (U251 CNS): 3.95 µM
TGI (U251 CNS): > 25 µM
GI50 (CCRF-CEM leukemia): 1760 nM
TGI (CCRF-CEM leukemia): > 25 µM
GI50 (UO-31 renal): 4.56 µM
TGI (UO-31 renal): 11.5 µM
